According to patent publication US8980887B2, “2-aryl imidazo[1,2-a]pyridine-3-acetamide derivatives, preparation methods and uses thereof” (Institute of Pharmacology, priority 2010, dated 2015):

How the values were obtained:
[1] = target: TSPO protein separated and purified from rat heart (Rattus norvegicus (Rat), UniProt P16257); test: TSPO and radioligand (3H-PK11195) competitive binding test; conditions: n = 6 times
Description: In the present test, TSPO protein separated and purified from rat heart was used as screening target, via competitive binding test with radioligand (^3H-PK11195), to screen TSPO ligand compounds.
Wister rats, 220-260 g, female and male, were sacrificed by decapitation and the rat heart were rapidly separated, weighed and to which homogenized in 10 times volume of Tris-HCl buffer solution (50 mM Tris-HCl, 5 mM MgCl2, 1 mM EDTA, 0.5% (W/V) BSA, 1 mM PMSF, 3 μg/ml proteinase inhibitor, 0.1% NaN3, 0.32M sucrose, pH 7.4) at 15,000 rpm for 30 s, total 5 times. The homogenate was centrifuged under 1000×g for 10 minutes and the supernatant was then centrifuged under 30000×g for 20 minutes. The precipitate was collected, and resuspended with 10 times volume of Tris-HCl buffer solution (pH 7.4) relative to the original weight, then centrifuged under 30000×g for 20 minutes. The precipitate was washed with the same buffer solution, centrifuged under 30000×g for 20 minutes and the precipitate was suspended with the above buffer solution. After sub-packaged (the whole operation procedures were performed under ice bath), the product was stored at −80° C.
3) Competitive Binding Test of Drug to the Receptor (Rat Heart TSPO) and Radioligand (^3H-PK11195):
(1) tubes were placed in reaction condition of 30° C.
(2) all tubes were added with 20 μg of receptor protein in order;
(3) the test tubes were added in order with 20 μL of drugs in certain concentrations;
(4) the non-specific binding tubes were added with 20 μL of non-tagged ligand (PK11195), the final concentration of the non-tagged ligand was 0.1 mM, pre-reacted for 30 min;
(5) all tubes were added in order with 25 μL ^3H-PK11195, the final concentration of the labeled ligand was 1.5 nM;
(6) Tris-HCl Buffer pH7.4 was used to complement the reaction volumes of all tubes to reach 200 μL;
(7) the reaction was performed under 30° C. reaction condition for 1 h;
(8) Then samples were applied to 49-type glass fibre filter, vacuum suction filtered, then washed with 2 ml ice-cold Tris-HCl buffer solution (50 mM Tris-HCl buffer solution, 1 mM EDTA, 5 mM MgCl2, 1 mM PMSF, 0.1% NaN3, 3 μg/ml proteinase inhibitor, pH 7.4). The filter was dried and placed in a scintillation vial with 1 ml of scintillation fluid. The radio-activity was measured by a scintillation counter.

SMILES | Inhibition rate (%) ([1]; 1 × 10^−5M) | Inhibition rate (%) ([1]; 1 × 10^−7M) | Inhibition rate (%) ([1]; 1 × 10^−9M) | melting point
CCN(Cc1ccccn1)C(=O)Cc1c(-c2ccc(OC)cc2)nc2cc(C)ccn12.Cl [Compound 20, N-ethyl-N-(2-pyridinylmethyl)-2-(4-methoxyphenyl)-7-methylimidazo[1,2-a]pyridine-3-acetamide.hydrochloride] | 61 | 63 | 0 | 228 to 230 °C
CCN(Cc1cccnc1)C(=O)Cc1c(-c2ccc(OC)cc2)nc2cc(C)ccn12.Cl [Compound 21, N-ethyl-N-(3-pyridinylmethyl)-2-(4-methoxyphenyl)-7-methylimidazo[1,2-a]pyridine-3-acetamide.hydrochloride] | 43 | 11 | 0 | 230 to 232 °C
CCN(Cc1ccncc1)C(=O)Cc1c(-c2ccc(OC)cc2)nc2cc(C)ccn12.Cl [Compound 22, N-ethyl-N-(4-pyridinylmethyl)-2-(4-methoxyphenyl)-7-methylimidazo[1,2-a]pyridine-3-acetamide.hydrochloride] | 63 | 9 | 4 | 239 to 242 °C
COCCN(Cc1ccccn1)C(=O)Cc1c(-c2ccc(OC)cc2)nc2cc(C)ccn12.Cl [Compound 23, N-(2-methoxyethyl)-N-(2-pyridinylmethyl)-2-(4-methoxyphenyl)-7-methylimidazo[1,2-a]pyridine-3-acetamide.hydrochloride] | 85 | 2 | 3 | 214 to 216 °C (dec.)
COCCN(Cc1cccnc1)C(=O)Cc1c(-c2ccc(OC)cc2)nc2cc(C)ccn12.Cl [Compound 24, N-(2-methoxyethyl)-N-(3-pyridinylmethyl)-2-(4-methoxyphenyl)-7-methylimidazo[1,2-a]pyridine-3-acetamide.hydrochloride] | 17 | 3 | 0 | 243 to 245 °C
COCCN(CCN1CCOCC1)C(=O)Cc1c(-c2ccc(C)cc2)nc2cc(C)ccn12.Cl [Compound 25, N-(2-methoxyethyl)-N-(2-morpholinylethyl)-2-(4-methylphenyl)-7-methylimidazo[1,2-a]pyridine-3-acetamide.hydrochloride] | 31 | 0 | 0 | 165 to 167 °C
COCCN(CCN1CCOCC1)C(=O)Cc1c(-c2ccc(C)cc2)nc2ccc(C)cn12.Cl [Compound 26, N-(2-methoxyethyl)-N-(2-morpholinylethyl)-2-(4-methylphenyl)-6-methylimidazo[1,2-a]pyridine-3-acetamide.hydrochloride] | 48 | 1 | 0 | 245 to 247 °C
CCN(Cc1ccncc1)C(=O)Cc1c(-c2ccc(C)cc2)nc2ccc(C)cn12.Cl [Compound 27, N-ethyl-N-(4-pyridinylmethyl)-2-(4-methylphenyl)-6-methylimidazo[1,2-a]pyridine-3-acetamide.hydrochloride] | 91 | 65 | 0 | 222 to 224 °C
